# Experimental data taken from patent US9642858B2, “Use of resazurin, or analogs thereof, for antibacterial therapy” (priority 2012, dated 2017).
# “Also recorded” adds a separate entry of the source.
# Tests used:
# [1] = tested on: type A F. tularensis (Schu S4); format: cell-based, Francisella tularensis; details: 44 μM
# N. gonorrhoeae = format: cell-based, Neisseria gonorrhoeae; details: 44 μM
# F. tularensis LVS = assay: microbe, parasite or virus in culture; format: cell-based, Francisella tularensis
# Escherichia coli = format: cell-based; details: 44 μM
# Pseudomonas aeruginosa = format: cell-based; details: 44 μM
# [2] = tested on: F. tularensis LVS in HEK-293 cells; format: cell-based, Francisella tularensis
# [3] = tested on: F. tularensis LVS in primary human macrophages; format: cell-based, Francisella tularensis
# N. polysaccharea = format: cell-based, Neisseria polysaccharea
# N. sicca = format: cell-based, Neisseria sicca
# F. novicida = format: cell-based, Francisella novicida
# [4] = tested on: primary human macrophages; assay: Viability of infected macrophages treated with resazurin (visible reduction of resazurin to resorufin)
structure (smiles),measurement,setting,value
"O=c1ccc2[n+]([O-])c3ccc(O)cc3oc-2c1 [resazurin, 7-Hydroxy-3H-phenoxazin-3-one 10-oxide]",bactericidal effect on chocolate II agar,[1],potent bactericidal effect
same,bactericidal effect on chocolate II agar,N. gonorrhoeae,potent bactericidal effect
same,F. tularensis growth,F. tularensis LVS,growth is inhibited
same,antibacterial activity (viable bacteria per ml),F. tularensis LVS,have antibacterial activity
same,"antimicrobial activity, effect of medium",F. tularensis LVS,not affected by the choice of medium
same,bacterial viability over time,F. tularensis LVS,significant decline in viable bacteria
same,bactericidal activity to F. tularensis,F. tularensis LVS,bactericidal
same,reduction in viable F. tularensis LVS bacteria compared to growth medium alone,F. tularensis LVS,~10 fold
same,viable bacteria,F. tularensis LVS,decrease in viable bacteria
same,MIC,"F. tularensis LVS; Francisella tularensis, read-out: minimal inhibitory concentration against F. tularensis",4.4 µM
same,bacterial viability / antimicrobial effect,Escherichia coli,does not have an antimicrobial effect; also recorded: no effect on bacterial viability
same,bacterial viability / antimicrobial effect,Pseudomonas aeruginosa,does not have an antimicrobial effect; also recorded: no effect on bacterial viability
same,intracellular growth / bacterial burden,[2],inhibited intracellular growth; also recorded: reduces bacterial burden
same,viable intracellular bacteria compared to the control,[2],substantial decrease in viable bacteria
same,intracellular growth / bacterial burden,[3],inhibited intracellular growth; also recorded: reduces bacterial burden
same,viable intracellular bacteria,[3],substantial decrease in viable bacteria
same,bactericidal activity,N. polysaccharea,bactericidal
same,bactericidal activity,N. sicca,bactericidal
same,bactericidal activity,F. novicida,bactericidal
same,viability of macrophages (toxicity),[4],still viable
O=c1ccc2nc3ccc(O)cc3oc-2c1 [resorufin],antibacterial activity (viable bacteria per ml),F. tularensis LVS,have antibacterial activity
same,antimicrobial effect on F. tularensis LVS viability (CFU) relative to resazurin,F. tularensis LVS,equivalently potent antimicrobial effect
same,bactericidal activity to F. tularensis,F. tularensis LVS,bactericidal
